Values belong to the compound of their own block, whether it stands above or below them.
Tests used:
[1] = molecular target: STE20-like serine/threonine-protein kinase (Homo sapiens, UniProt Q9H2G2); experiment: Selectivity interaction (LanthaScreen Eu Kinase Binding Assay) EUB0001632a SLK; details: at 10 µM
[2] = system: Fibroblast growth factor receptor 3 (Homo sapiens), P22607 [G697C]; experiment: (§1) Selectivity interaction (KinomeScan (DiscoverX)) EUB0000607a FGFR3; details: at 10 µM
[3] = molecular target: Fibroblast growth factor receptor 3 (Homo sapiens, UniProt P22607); experiment: as §1; details: at 10 µM
Chain of Fibroblast growth factor receptor 3 (P22607 23-806 limits assumed): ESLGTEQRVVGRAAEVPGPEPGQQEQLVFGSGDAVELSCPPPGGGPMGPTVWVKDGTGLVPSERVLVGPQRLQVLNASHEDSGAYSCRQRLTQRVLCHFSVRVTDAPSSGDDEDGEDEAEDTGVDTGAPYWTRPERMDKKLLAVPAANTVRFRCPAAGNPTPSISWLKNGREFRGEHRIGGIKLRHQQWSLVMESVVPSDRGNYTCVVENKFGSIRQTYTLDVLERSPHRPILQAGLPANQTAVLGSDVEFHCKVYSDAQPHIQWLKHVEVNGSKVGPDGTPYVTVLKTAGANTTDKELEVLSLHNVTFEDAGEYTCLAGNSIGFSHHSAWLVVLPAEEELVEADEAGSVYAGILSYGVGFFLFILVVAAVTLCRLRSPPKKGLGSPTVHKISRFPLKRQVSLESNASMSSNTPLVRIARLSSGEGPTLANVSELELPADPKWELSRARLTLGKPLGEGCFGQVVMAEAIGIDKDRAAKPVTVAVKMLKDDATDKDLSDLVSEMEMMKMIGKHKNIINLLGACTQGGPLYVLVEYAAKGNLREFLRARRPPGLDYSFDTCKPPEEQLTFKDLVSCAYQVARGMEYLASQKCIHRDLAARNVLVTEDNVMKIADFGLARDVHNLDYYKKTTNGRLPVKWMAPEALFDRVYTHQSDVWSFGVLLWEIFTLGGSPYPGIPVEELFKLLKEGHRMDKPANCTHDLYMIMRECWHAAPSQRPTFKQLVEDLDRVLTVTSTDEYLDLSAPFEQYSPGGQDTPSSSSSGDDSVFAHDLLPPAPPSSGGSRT

[4] = molecular target: BDNF/NT-3 growth factors receptor (Homo sapiens) (UniProt Q16620); experiment: Selectivity interaction (Upstate Kinase Profiler service (Millipore)) EUB0000056c NTRK2; details: at 1 µM
Chain of BDNF/NT-3 growth factors receptor (Homo sapiens) (Q16620 32-822 limits assumed): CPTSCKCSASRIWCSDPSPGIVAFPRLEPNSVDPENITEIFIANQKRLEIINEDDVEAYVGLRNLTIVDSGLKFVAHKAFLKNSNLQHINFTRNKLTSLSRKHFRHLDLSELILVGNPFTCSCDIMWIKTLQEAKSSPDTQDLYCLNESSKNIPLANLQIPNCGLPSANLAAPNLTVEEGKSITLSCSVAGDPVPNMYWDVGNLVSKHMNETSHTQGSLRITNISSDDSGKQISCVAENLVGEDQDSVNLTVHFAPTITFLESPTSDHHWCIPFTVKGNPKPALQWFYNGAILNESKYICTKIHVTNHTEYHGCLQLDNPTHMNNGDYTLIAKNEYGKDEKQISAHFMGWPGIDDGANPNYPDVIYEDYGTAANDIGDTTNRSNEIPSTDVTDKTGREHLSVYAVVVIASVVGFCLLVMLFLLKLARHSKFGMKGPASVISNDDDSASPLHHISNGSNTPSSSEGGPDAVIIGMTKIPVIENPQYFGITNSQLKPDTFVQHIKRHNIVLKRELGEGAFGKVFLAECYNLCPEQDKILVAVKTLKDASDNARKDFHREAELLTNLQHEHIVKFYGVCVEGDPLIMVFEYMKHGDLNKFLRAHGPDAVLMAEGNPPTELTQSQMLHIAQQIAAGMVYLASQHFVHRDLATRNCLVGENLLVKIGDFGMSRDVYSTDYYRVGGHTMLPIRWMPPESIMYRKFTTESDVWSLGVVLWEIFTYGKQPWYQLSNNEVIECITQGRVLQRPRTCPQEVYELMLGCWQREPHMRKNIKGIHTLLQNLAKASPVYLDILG

[5] = molecular target: T1, Serine/threonine-protein kinase Chk1 (Homo sapiens) (UniProt O14757); experiment: Selectivity interaction (Upstate Kinase Profiler service (Millipore)) EUB0000056c CHEK1; details: at 1 µM
T1 sequence (whole entry): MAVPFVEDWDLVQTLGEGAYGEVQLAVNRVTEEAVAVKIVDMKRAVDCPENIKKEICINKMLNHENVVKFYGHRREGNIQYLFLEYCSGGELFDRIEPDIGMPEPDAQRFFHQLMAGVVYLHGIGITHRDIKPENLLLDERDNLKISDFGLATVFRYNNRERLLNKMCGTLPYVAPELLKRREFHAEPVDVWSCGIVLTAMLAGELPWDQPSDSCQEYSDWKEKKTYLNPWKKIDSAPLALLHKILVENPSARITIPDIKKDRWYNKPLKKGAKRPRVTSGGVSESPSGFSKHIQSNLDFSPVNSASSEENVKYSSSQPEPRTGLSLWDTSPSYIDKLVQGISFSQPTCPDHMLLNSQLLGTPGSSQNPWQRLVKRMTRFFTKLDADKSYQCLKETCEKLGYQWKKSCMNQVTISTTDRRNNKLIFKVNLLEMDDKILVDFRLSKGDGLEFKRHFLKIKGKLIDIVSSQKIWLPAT

[6] = molecular target: T2, Dual specificity mitogen-activated protein kinase kinase 3 (Homo sapiens) (UniProt P46734); experiment: Selectivity interaction (ActivX KiNativ screen (kinase selectivity in THP-1 cell lysates)) EUB0000639a MAP2K3; assay type: subcellular; details: lysate, at 0.04 µM
T2 sequence (whole entry): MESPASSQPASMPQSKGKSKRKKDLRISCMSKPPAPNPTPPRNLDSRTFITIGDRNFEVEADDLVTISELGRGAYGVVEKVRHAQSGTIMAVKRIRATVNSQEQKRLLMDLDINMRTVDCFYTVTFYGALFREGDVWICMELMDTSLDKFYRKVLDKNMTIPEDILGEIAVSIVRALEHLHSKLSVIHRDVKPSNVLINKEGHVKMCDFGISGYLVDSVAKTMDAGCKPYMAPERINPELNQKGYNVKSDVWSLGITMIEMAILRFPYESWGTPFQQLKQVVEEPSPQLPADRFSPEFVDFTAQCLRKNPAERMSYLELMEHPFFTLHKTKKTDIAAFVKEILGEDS

[7] = molecular target: Mitogen-activated protein kinase kinase kinase 20 (Homo sapiens) (UniProt Q9NYL2); experiment: Selectivity interaction (ProQinase) EUB0000171b MAP3K20
Chain of Mitogen-activated protein kinase kinase kinase 20 (Homo sapiens) (Q9NYL2 2-800 limits assumed): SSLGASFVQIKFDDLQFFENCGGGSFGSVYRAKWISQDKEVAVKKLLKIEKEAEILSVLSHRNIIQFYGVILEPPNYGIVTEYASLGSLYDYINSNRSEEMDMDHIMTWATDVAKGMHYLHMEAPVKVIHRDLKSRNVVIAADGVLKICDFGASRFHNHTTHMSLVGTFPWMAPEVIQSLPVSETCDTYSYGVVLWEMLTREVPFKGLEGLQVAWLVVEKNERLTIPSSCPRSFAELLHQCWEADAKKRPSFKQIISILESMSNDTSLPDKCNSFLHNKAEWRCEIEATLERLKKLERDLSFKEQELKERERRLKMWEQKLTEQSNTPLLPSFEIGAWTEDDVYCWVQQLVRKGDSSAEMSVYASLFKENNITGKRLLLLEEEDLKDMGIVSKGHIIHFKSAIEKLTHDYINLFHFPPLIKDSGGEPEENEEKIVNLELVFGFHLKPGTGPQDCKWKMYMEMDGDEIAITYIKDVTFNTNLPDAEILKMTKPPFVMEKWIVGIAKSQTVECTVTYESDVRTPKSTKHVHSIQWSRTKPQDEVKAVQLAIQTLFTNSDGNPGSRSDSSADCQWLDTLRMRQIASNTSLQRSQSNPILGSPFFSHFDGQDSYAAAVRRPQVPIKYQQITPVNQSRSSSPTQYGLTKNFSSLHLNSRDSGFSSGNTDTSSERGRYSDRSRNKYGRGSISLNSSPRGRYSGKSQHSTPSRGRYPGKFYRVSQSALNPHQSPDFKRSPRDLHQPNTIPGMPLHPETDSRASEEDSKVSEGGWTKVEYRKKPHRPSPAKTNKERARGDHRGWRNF

[8] = molecular target: Calcium/calmodulin-dependent protein kinase type 1G (Homo sapiens) (UniProt Q96NX5); experiment: Selectivity interaction (Kinase panel (DSF assay)) EUB0001558a CAMK1G
Chain of Calcium/calmodulin-dependent protein kinase type 1G (Homo sapiens) (Q96NX5 whole entry): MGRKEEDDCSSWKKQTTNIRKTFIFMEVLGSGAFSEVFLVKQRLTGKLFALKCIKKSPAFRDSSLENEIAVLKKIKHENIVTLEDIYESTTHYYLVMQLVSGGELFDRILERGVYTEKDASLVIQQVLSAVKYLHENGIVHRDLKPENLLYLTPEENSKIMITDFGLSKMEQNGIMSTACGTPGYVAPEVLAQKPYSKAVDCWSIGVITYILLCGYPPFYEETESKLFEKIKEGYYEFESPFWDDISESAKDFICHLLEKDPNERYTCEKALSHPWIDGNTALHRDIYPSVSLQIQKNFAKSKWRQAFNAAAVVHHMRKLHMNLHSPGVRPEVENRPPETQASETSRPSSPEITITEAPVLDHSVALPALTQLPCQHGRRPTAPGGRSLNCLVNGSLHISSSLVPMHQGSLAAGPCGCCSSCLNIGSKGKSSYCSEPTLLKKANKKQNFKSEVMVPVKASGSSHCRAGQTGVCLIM

[9] = molecular target: Interleukin-1 receptor-associated kinase 1 (Homo sapiens) (UniProt P51617); experiment: Selectivity interaction (KinomeScan (DiscoverX)) EUB0001079a IRAK1; details: at 1 µM
Chain of Interleukin-1 receptor-associated kinase 1 (Homo sapiens) (P51617 whole entry, looked up): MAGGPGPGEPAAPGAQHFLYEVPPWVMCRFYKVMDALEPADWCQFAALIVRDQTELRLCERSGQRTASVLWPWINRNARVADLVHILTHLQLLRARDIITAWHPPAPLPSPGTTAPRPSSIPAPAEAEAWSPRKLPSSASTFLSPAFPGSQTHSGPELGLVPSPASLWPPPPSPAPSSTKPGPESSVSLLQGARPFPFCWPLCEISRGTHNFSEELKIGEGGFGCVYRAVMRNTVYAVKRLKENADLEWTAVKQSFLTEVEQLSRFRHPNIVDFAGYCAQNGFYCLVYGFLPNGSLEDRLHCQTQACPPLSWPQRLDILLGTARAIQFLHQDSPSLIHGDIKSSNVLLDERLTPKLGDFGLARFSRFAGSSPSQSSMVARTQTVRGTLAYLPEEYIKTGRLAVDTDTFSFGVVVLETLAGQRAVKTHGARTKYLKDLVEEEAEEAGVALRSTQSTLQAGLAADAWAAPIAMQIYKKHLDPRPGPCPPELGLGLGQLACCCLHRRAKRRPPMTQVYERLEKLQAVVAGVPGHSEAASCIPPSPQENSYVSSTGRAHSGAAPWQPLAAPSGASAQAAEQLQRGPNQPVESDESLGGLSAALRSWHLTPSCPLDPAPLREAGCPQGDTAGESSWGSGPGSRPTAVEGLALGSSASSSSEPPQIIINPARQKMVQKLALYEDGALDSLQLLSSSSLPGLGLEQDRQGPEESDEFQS

[10] = molecular target: T3, Ephrin type-A receptor 3 (Homo sapiens) (UniProt P29320); experiment: Selectivity interaction (KinomeScan (DiscoverX)) EUB0001619a EPHA3; details: at 1 µM
T3 sequence (whole entry): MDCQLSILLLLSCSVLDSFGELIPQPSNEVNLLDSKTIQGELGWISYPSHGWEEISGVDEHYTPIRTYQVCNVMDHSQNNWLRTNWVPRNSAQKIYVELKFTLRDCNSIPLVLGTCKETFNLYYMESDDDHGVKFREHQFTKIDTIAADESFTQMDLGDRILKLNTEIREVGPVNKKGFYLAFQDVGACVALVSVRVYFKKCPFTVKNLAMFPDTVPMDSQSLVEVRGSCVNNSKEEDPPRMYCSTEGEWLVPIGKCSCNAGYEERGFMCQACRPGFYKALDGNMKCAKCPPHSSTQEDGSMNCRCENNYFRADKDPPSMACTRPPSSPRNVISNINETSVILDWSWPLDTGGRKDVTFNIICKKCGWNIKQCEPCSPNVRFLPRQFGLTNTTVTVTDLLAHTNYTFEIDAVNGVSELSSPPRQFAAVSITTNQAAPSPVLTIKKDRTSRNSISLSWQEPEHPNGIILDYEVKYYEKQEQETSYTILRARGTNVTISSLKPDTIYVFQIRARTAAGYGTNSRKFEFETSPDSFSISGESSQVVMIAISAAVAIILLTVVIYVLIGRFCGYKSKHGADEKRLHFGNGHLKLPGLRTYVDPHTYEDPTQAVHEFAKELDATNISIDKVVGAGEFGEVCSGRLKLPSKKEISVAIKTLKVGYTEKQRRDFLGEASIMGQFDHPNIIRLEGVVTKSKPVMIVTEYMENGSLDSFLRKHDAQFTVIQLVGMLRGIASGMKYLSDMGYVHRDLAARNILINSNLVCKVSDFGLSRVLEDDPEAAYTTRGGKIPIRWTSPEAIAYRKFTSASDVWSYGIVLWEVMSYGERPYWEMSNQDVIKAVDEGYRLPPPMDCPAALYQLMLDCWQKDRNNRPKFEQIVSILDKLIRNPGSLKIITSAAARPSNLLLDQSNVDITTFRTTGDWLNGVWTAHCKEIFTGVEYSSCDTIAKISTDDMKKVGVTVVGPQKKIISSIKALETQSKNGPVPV

Chain of STE20-like serine/threonine-protein kinase (Q9H2G2 whole entry, looked up): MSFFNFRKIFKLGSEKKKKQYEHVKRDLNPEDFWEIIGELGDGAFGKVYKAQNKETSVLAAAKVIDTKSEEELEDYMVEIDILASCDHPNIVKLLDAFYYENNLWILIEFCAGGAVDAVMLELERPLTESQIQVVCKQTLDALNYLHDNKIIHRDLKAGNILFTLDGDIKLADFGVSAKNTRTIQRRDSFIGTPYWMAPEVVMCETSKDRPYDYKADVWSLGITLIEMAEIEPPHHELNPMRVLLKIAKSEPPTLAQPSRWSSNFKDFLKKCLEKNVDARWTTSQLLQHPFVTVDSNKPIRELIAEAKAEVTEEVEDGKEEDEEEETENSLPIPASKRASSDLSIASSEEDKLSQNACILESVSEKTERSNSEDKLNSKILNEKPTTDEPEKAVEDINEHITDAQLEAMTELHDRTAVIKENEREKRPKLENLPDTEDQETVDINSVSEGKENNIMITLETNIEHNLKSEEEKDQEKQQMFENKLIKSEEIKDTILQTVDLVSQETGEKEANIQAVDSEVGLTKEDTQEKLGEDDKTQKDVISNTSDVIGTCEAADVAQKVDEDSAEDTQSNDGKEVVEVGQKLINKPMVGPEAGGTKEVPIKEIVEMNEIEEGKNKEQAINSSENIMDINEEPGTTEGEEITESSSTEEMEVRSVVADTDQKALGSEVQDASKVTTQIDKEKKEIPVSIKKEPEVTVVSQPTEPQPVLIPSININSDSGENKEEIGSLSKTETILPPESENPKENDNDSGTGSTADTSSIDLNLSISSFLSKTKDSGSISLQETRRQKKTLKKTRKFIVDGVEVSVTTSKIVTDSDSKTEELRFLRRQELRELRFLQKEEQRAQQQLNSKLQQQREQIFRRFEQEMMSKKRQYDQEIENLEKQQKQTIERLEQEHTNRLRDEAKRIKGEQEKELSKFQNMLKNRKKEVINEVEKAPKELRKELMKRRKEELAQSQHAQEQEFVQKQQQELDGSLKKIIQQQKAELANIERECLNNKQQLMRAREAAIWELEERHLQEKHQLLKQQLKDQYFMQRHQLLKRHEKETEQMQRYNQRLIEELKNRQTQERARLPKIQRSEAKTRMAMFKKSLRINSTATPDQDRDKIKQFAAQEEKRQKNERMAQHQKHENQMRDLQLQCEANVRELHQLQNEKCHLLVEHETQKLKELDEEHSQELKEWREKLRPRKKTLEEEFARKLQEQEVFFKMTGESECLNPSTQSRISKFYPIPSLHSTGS

% of inhibition [1]: -1.88%
SMILES: Cn1cc(-n2cnc3c(NCc4nc5cc(Cl)c(Cl)cc5[nH]4)nc(N4CCOCC4)nc32)cn1

% of inhibition [4]: -8%
% of inhibition [5]: 12%
SMILES: Cc1ccc(-c2ccc3c(ccc4sc5c(c43)NC[C@@H](C)NC5=O)n2)cn1

% of inhibition [6]: -19%
SMILES: CC[C@@H]1[C@H](F)C(=O)N[C@@H]1COc1nccc2cc(C(N)=O)c(OC)cc12 [ZIMLOVISERTIB]

% of control ([7]; at 1 µM): 48%
% of control ([7]; at 5 µM): 15%
SMILES: C=CC(=O)Nc1cccc(C(=O)Nc2ccc(Nc3cc(-c4[nH]c(SC)nc4C)ccn3)cc2)c1

The next lines start with the compound.

SMILES: CNC(=O)Nc1ccc(-c2nc(N3CC4CCC(C3)O4)c3cnn(C4CCC5(CC4)OCCO5)c3n2)cc1
% of control [2]: 74%
% of control [3]: 83%

SMILES: CC(C)(O)[C@H](F)CN1Cc2cc(NC(=O)c3cnn4cccnc34)c(N3CCOCC3)cc2C1=O
dTM [8]: 0.4 K

SMILES: Nc1cnc(N2CCc3cc(S(=O)(=O)Nc4c(F)cc(Cl)cc4F)cc(N4CCCC4=O)c32)nc1 [TP-020n]
% of control [9]: 100%

SMILES: N#Cc1cccc(-c2c[nH]c3ncnc(N4CCOCC4)c23)c1
% of control [10]: 66%

Reference: ChEMBL document CHEMBL5465560, “Selectivity Literature for EUbOPEN Chemogenomic Library” (2024)
